# Entries after “also recorded” stand apart in the source; their conditions may differ. Where two headings read alike, the source gives them in different places. Marks after values point to notes of the source that are not given here.
# Experiments:
# [1] = test system: parental AtT-20 cells; experiment: GIRK response in parental (non-transfected) AtT-20 cells; format: cell-based, mouse; settings: 300 nM, no exogenous D3 receptor expression
# Procedure: To determine whether a compound is an agonist of the D3 dopamine receptor the AtT-20 neuroendocrine cell line that stably expresses the human D3 receptors is used. In the initial screen, the ability of 300 nM lead compound to activate G-protein coupled inward rectifier potassium (GIRK) channels (FIG. 1) is measured using whole cell voltage clamp recording. The protocol has been previously used for performing whole cell voltage clamp and measuring agonist-induced GIRK response. The acute ligand-induced GIRK currents are compared to that elicited by equivalent concentration of native agonist dopamine or full agonist quinpirole. The specificity of the response is determined by measuring GIRK response elicited by the lead compound in non-transfected AtT-20 cells and also in the presence of D2-like dopamine receptor antagonist eticlopride and D3 receptor selective antagonist GR218231 ((+)-(2R)-1,2,3,4-tetrahydro-6-[[(4-methoxyphenyl)sulfonyl]methyl]-N,N-dipropyl-2-naphthalenamine). To be considered for further development, the lead compound should generate a GIRK response that is equal to or greater than that elicited by equivalent concentration (300 nM) of dopamine or quinpirole.
# AtT-20 mouse pituitary cells were grown in Ham's F10 medium with 5% FBS, 10% heat-inactivated horse serum, 2 mM glutamine and 50 μg/ml gentamicin (Invitrogen, Carlsbad, Calif.). AtT-20 cells stabling expressing the human D2S, D2L, D3, and D4.2 and receptor were maintained in the above F10 culture media supplemented with 500 μg/ml G418 (Invitrogen). […]
# Agonist-activated currents were measured by the whole-cell patch clamp technique in voltage clamp and current clamp mode as described previously (Kuzhikandathil & Oxford, 2000, J. Gen. Physiol. 115:697-706; Kuzhikandathil et al., 1998, Mol. Cell. Neurosci. 12:390-402; Kuzhikandathil & Bartoszyk, 2006, Neuropharm. 51:873-884; Westrich & Kuzhikandathil, 2007, Biochim. Biophys. Acta-MCR 1773:1747-1758; Kuzhikandathil et al., 2004, Mol. Cell. Neurosci. 26:144-155; Westrich et al., 2010, Biochem. Pharmacol. 79:897-907). […]
# [2] = target: D4.2 dopamine receptor (Homo sapiens (Human), UniProt P21917, DEL265-296); format: cell-based
# D4.2 dopamine receptor, sequence (P21917 other isoform, or with tags, fused parts or gaps del 265-296): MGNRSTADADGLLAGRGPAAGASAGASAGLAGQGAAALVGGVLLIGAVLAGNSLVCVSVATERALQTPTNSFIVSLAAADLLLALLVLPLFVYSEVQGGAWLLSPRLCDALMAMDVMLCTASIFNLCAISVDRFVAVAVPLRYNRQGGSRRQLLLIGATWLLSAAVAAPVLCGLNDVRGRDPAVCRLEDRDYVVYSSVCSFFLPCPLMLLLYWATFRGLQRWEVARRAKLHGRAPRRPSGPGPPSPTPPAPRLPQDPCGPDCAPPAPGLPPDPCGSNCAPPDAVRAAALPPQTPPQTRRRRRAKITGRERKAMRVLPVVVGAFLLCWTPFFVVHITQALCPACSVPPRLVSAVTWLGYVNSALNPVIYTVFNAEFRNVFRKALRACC
# Procedure: The EC50 values for each receptor subtype is determined by fitting the data points using the Hill equation.
# AtT-20 mouse pituitary cells were grown in Ham's F10 medium with 5% FBS, 10% heat-inactivated horse serum, 2 mM glutamine and 50 μg/ml gentamicin (Invitrogen, Carlsbad, Calif.). AtT-20 cells stabling expressing the human D2S, D2L, D3, and D4.2 and receptor were maintained in the above F10 culture media supplemented with 500 μg/ml G418 (Invitrogen). For electrophysiological characterization, cells were plated onto glass coverslips coated with 40 μg/ml poly L-lysine (Sigma-Aldrich). […] Physiol. […] Neurosci. […] Biophys. […] Neurosci.
# Drug solutions were delivered to cells via a multi-barreled micropipette array. The current responses were normalized to the cell capacitance, to account for variation in cell size.
# To compare the functional effects of the new class of D3 receptor agonists, PBZI (Table 2) and ES609 (Table 3) were tested on AtT-20 cells stably expressing human D3, D2S, D2L or D4.2.
# [3] = test system: intrastriatal 6-OHDA lesioned rats; experiment: Levodopa-induced dyskinesia (AIMs score) in intrastriatal 6-OHDA lesioned rats; format: in vivo, rat; settings: PBZI 17 mg/kg sc; for effect on levodopa-induced dyskinesia (AIMs score): given 10 minutes before 6 mg/kg levodopa, ES609 20 mg/kg
# Procedure: In particular, rats in which unilateral intrastriatal lesion is induced by injection of 6-OHDA (7 μg) at three different sites in the ventrolateral striatum are used. The coordinates for the three injection sites are, in mm: injection site 1: AP: +1.0; ML: −3.0; DV: −5.0; injection site 2: AP: −0.1; ML: −3.7; DV: −5.0; injection site 3: AP: −1.2; ML: −4.5; DV: −5.0. Anterior-posterior (AP) and mediolateral (ML) coordinates are from bregma. The dorso-ventral (DV) coordinates are from dura. The toothbar location is 0.
# Seven and half weeks after the lesion, chronic levodopa treatment (6 mg/kg, single dose per day given with 15 mg/kg benserazide) is initiated. Stepping test and AIMs scores are determined on day 1, 8, 10, 17 and 24 after the initiation of chronic levodopa treatment. […] AIMs are scored using a rating scale based on frequency and severity of the dyskinetic symptoms. It should be noted that the rank order of the various AIMs components in terms of frequency and severity in the rat model is: limb>orolingual=axial>>locomotor. This lesion model has been used to test the effect of PBZI on LID (Example 3).
# FIG. 13A illustrates the effect of control, PD128907 (a tolerance inducing D2/D3 agonist) and PBZI (a non tolerance inducing D3/D3 agonist) on the total AIMs score (includes locomotor, axial, limb and orolingual) over time of a day 17 (chronic L-DOPA phase) lesioned animal.
structure (smiles),measurement,setting,value
CC(N)CCc1ccccc1Cl (stereo not shown) [ES609],GIRK currents in parental AtT-20 cells,[1],neither 300 nM PBZI (hatched bar) nor 300 nM ES609 (cross hatched bar) induced GIRK currents
same,GIRK currents in parental AtT-20 cells,[1]; listed as ES 609,did not elicit GIRK currents
same,GIRK channel activation: agonist type,[2],elicited no response
same,GIRK channel activation EC50,"[2]; AtT-20 cells, D4.2",No response
same,GIRK channel activation Ratio of ES609 to quinpirole response (at 300 nM),"[2]; D4.2, 300 nM",0^††
same,GIRK response at 300 nM,"[2]; D4.2, 300 nM","^††300 nM ES609 elicits no GIRK response; but, 300 nM quinpirole elicits a full GIRK response."
same,GIRK channel activation: agonist type,[2]; listed as ES0609,no response
same,effect on levodopa-induced dyskinesia (AIMs score),[3],improve levodopa-induced dyskinesia
"CCCN1CC[C@@H]2c3cc(O)ccc3CC[C@@H]21 [PBZI, (3aS,9bR)-3-propyl-1,2,3a,4,5,9b-hexahydrobenzo[e]indol-8-ol]",GIRK currents in parental AtT-20 cells,[1],neither 300 nM PBZI (hatched bar) nor 300 nM ES609 (cross hatched bar) induced GIRK currents
same,GIRK channel activation: agonist type,[2],partial agonist
same,GIRK channel activation Ratio of PBZI to quinpirole response (at 300 nM),"[2]; D4.2, 300 nM",0.35*
same,"dyskinesia induced by the compound itself, before levodopa administration",[3]; PD128907 0.1 mg/kg sc,did not induce dyskinesia
same,effect on levodopa-induced dyskinesia (AIMs score),[3],reduces AIM scores; also recorded: significantly reduced the AIM score; also recorded: delayed the onset of levodopa induced dyskinesia; also recorded: delayed and reduced the dyskinesia induced by levodopa; also recorded: improve levodopa-induced dyskinesia
